{
  "source": "paper PMC11672299",
  "about": "“Conjugation of Polycationic Peptides Extends the Efficacy Spectrum of β‐Lactam Antibiotics” (Advanced Science, 2024)",
  "key": {"HEK‐293 cells": {"tested_on": "HEK‐293 cells", "experiment": "Cytotoxicity assay (PrestoBlue viability)", "type": "cell-based, human", "conditions": "HEK‐293, up to 512 µg mL^−1, 24 h", "method": "(§1) To exclude any cytotoxic effects on mammalian cells prior to in vivo studies, the viability of the cell lines HEP‐G2 (hepatocellular carcinoma) and HEK‐293 (human […] embryonal kidney) after incubation with different concentrations of the β‐lactam–peptide conjugates were determined. For the viability assay, 10^4 cells per well were seeded in a 96‐well half area microplate and incubated overnight in a humidified 5% CO2 atmosphere at 37 °C. The next day, the conjugates were twofold serially diluted in PBS and added to the cells to obtain final concentrations ranging from 1–512 µg mL^−1. Cells were then incubated with the antibiotics in a humidified 5% CO2 atmosphere at 37 °C for a further 24 h. PrestoBlue HS Cell Viability Reagent was then added to the wells and the plates again were incubated in a humidified 5% CO2 atmosphere at 37 °C for 1 h. Afterwards, the absorption at 570 nm and 600 nm (reference) using an Infinite M200 PRO microplate reader (Tecan, Männedorf, Switzerland) was measured. Cell viability was calculated using the untreated control cells as a reference for 100% alive cells."}, "HEPG2 cells": {"tested_on": "HEPG2 cells", "experiment": "Cytotoxicity assay (PrestoBlue viability)", "type": "cell-based, human", "conditions": "HEPG2, up to 512 µg mL^−1, 24 h", "method": "as §1"}, "Gram‐positive bacteria": {"tested_on": "Gram‐positive bacteria", "experiment": "MIC compared with parent β‐lactam", "type": "cell-based", "method": "(§2) The minimum inhibitory concentration (MIC) of the β‐lactam–peptide conjugates was determined by broth microdilution as previously described.^[ [17] ^] Briefly, in cation‐adjusted MHB II medium, a twofold serial dilution of the compounds was prepared in 96‐well round‐bottom polystyrene or polypropylene microtiter plates with each well containing 50 µL. The plates were inoculated with 50 µL bacterial suspension and the final inoculum, in a total volume of 100 µL, contained 5 × 10^5 CFU mL^−1. The microplates were incubated for 20 h at 37 ± 1 °C. The lowest concentration preventing visible bacterial growth was considered the MIC value. For susceptibility testing of combinations of β‐lactamase‐inhibitors with either a β‐lactam antibiotic or a β‐lactam–peptide conjugate, fixed concentrations of the inhibitors according to the EUCAST (European Committee on Antimicrobial Susceptibility Testing) guidelines (clavulanic acid = 2 mg L^−1, avibactam = 4 mg L^−1) were used."}, "Gram‐negative bacteria": {"tested_on": "Gram‐negative bacteria", "experiment": "MIC compared with parent β‐lactam", "type": "cell-based", "method": "as §2"}, "[1]": {"tested_on": "Enterobacteriaceae (CTZ‐resistant)", "experiment": "MIC compared with parent β‐lactam", "type": "cell-based", "method": "as §2"}, "E. faecalis (vanB)": {"tested_on": "E. faecalis (vanB)", "experiment": "MIC compared with parent β‐lactam", "type": "cell-based", "conditions": "on a molar level", "method": "as §2"}, "PBP2A": {"target": "T1, PBP2A (Bacillus subtilis, UniProt P54488)", "T1 construct": "endogenous in cells; host or cells: B. subtilis DSM 10, extracted membrane protein fraction", "T1 sequence (P54488 whole entry)": "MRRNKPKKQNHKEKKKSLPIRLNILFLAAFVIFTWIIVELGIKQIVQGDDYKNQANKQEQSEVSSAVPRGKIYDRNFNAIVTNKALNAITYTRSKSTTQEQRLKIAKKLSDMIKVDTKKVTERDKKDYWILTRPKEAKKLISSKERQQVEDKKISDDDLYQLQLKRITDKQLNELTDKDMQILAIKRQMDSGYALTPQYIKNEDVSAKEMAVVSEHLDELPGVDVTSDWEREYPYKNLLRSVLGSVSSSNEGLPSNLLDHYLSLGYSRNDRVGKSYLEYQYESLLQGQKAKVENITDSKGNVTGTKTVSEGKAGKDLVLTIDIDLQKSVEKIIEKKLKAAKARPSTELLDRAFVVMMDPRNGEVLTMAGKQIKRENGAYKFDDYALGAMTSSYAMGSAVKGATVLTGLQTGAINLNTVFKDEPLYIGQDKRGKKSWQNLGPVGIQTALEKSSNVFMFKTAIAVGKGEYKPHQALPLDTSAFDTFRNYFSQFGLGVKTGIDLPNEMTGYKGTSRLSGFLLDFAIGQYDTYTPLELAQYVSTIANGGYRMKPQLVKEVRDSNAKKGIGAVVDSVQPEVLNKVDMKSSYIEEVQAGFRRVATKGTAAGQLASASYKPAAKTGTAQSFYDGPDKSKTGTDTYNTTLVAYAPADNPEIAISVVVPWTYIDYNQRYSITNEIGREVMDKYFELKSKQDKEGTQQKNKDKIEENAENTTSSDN", "experiment": "Gel‐based PBP affinity assay (Bocillin FL competition)", "type": "binding", "conditions": "B. subtilis membrane fractions, competition with Bocillin FL penicillin; compared with parent β‐lactam", "method": "(§3) B. subtilis DSM 10 and E. faecalis ATCC 51 299 (equal to DSM 12 956) membrane protein fractions were extracted according to the protocol of Dean et al. with minor modifications.^[ [34] ^] From a growing overnight bacterial culture, 3 L of LB (Luria‐Bertani) medium or TSB (tryptic soy broth) were inoculated with B. subtilis DSM 10 and E. faecalis ATCC 51 299, respectively, to obtain an OD600 = 0.3. The cultures were grown to an OD600 = 0.6–0.8 while shaking at 37 °C and cells were harvested by centrifugation at 4000 g for 30 min at 4 °C. The resulting pellet was washed twice with pre‐cooled PBS and resuspended in 30 mL of ice‐cooled PBS. The suspension was sonicated on ice (10 cycles of 30 s at 50% power for B. subtilis; 12 cycles of 30 s at 80% power for E. faecalis; 2 min intervals between cycles) using an Omni Ruptor 4000 ultrasonic homogenizer (Omni International, Kennesaw, GA, USA). Afterwards, the suspension was centrifuged at 7000 g for 10 min at 4 °C. The clear supernatant was transferred into a 50 mL polypropylene tube and centrifuged in a Beckman Coulter centrifuge equipped with a JA‐20 fixed‐angle rotor (Beckman Coulter, Krefeld, Germany) at 50 000 g for 1 h at 4 °C. The resulting pellet was washed with ice‐cold PBS and centrifuged a second time. The pellet was resuspended in 2 mL PBS and aliquots were stored at −80 °C. The protein content was determined using Bradford reagent (VWR International, Darmstadt, Germany) and Pierce BCA (bicinchoninic acid) protein assay kits (Thermo Fisher Scientific, Waltham, MA, USA) for membrane fractions of B. subtilis and E. faecalis, respectively.\n(§4) Each dilution was combined with B. subtilis (30 µg) or E. faecalis (15 µg) extracted membrane fractions. As reference samples, membrane fractions incubated with only PBS were prepared. Reaction mixtures were incubated for 20 min at 37 °C while shaking at 400 rpm. Next, Bocillin FL penicillin (Thermo Fisher Scientific, Waltham, MA, USA) was added to obtain a final concentration of 20 µM in the mixture. Samples were incubated for 30 min at 37 °C while shaking at 400 rpm. To denature the samples, 4× Laemmli sample buffer (Bio‐Rad Laboratories, Feldkirchen, Germany) was added, and the samples incubated for 10 min at 70 °C. Afterwards, the samples were centrifuged for 5 min at 13 000 rpm. Samples were separated by SDS‐PAGE using a 10% Tris‐glycine gel for 100 min at 180 V. The bands were visualized using a Typhoon FLA 9500 imager (GE Healthcare, Chicago, IL, USA) with excitation at 473 nm. The gel images were analyzed using ImageJ software. Brightness and contrast were adjusted to improve the signal‐to‐noise ratio and the background signal was subtracted over the whole image. Next, integrated density values of the gel bands were measured and Bocillin FL penicillin labeling of each PBP in antibiotic‐treated samples were set in proportion to the reference sample. IC50 values were calculated with GraphPad Prism software (version 8.0.1) using inhibitor versus normalized response variable slope and least‐squares fit. […] The mean was calculated using the IC50 values of at least two independent assays for each antibiotic."}, "PBP5": {"tested_on": "PBP5", "experiment": "Gel‐based PBP affinity assay (Bocillin FL competition)", "type": "binding", "conditions": "PBPs from vancomycin‐resistant E. faecalis; compared with parent; at concentrations considerably higher than MICs", "method": "as §3, §4"}},
  "data": [
    {"smiles": "CC(C)(O/N=C(\\C(=O)N[C@@H]1C(=O)N2C(C(=O)[O-])=C(C[n+]3ccccc3)CS[C@H]12)c1csc(N)n1)C(=O)O", "note": "[CTZ, ceftazidime, reference compound]", "values": [
      {"measurement": "cytotoxicity (cell viability)", "setting": "HEK‐293 cells", "result": "no significant cytotoxicity"},
      {"measurement": "cytotoxicity (cell viability)", "setting": "HEPG2 cells", "result": "no significant cytotoxicity"}
    ]},
    {"smiles": "CC(C)(O/N=C(\\C(=O)N[C@@H]1C(=O)N2C(C(=O)[O-])=C(C[n+]3ccccc3)CS[C@H]12)c1csc(N)n1)C(=O)NCCCCCCN1C(=O)CC(SC[C@H](NC(=O)[C@H](CCCNC(=N)N)NC(=O)[C@H](CCCNC(=N)N)NC(=O)[C@H](CCCNC(=N)N)NC(=O)[C@H](CCCNC(=N)N)NC(=O)[C@H](CCCNC(=N)N)NC(=O)[C@@H](N)CCCNC(=N)N)C(N)=O)C1=O", "note": "(some centres unmarked) [CTZ-R6]", "values": [
      {"measurement": "increase in antimicrobial activity versus CTZ (factor)", "setting": "Gram‐positive bacteria", "result": "≈ 1000"},
      {"measurement": "increase in antimicrobial activity versus CTZ (factor)", "setting": "Gram‐negative bacteria", "result": "2–32"},
      {"measurement": "increase in antimicrobial activity versus CTZ", "setting": "[1]", "result": "ca. fourfold"},
      {"measurement": "increase in antimicrobial activity versus CTZ", "setting": "E. faecalis (vanB)", "result": "~300", "unit": "fold"},
      {"measurement": "affinity to PBP2A", "setting": "PBP2A", "result": "significantly increased"},
      {"measurement": "binding to PBP5", "setting": "PBP5", "result": "slightly improved binding"}
    ]}
  ]
}
